Where two headings read alike, the source gives them in different places.
Experiments:
ADRB3 [1] = target: ADRB3; design: method as in PMID 20590599; details: assumed for Ki calculation; ref [31]; cited from earlier work
murine brown adipocytes [2] = assay: Specific [11C]SNAP-7941 binding to brown adipocytes (competition); assay type: cell-based; details: 2 μM unlabeled compound; for [11C]SNAP-7941 binding per well referring to baseline: 30 min pre-treatment, baseline (vehicle) = 100% binding/well, mean ± SD
Experimental: (§1) Cells were maintained under standard conditions in a humidified incubator (37°C, 5% CO2). CHO-K1 cells expressing the human adrenergic beta-3 receptor (CHO-K1-ADRB3) were purchased from PerkinElmer (ValiScreen® ES-035-C). CHO-K1-ADRB3 were grown using Ham's F12 (Nut Mix) supplemented with 10% FCS, 2 mM L-glutamine, penicillin (100 Units/mL), streptomycin (100 μg/mL), and 0.4 mg/mL geneticin. CHO-K1 cells were a generous gift from Prof. Karl Norbert Klotz (University Würzburg, Germany) and cultured likewise without selection antibiotics. Immortalized murine brown pre-adipocytes were provided by the Department of Medicine III (Medical University of Vienna, Austria) and cultured in high glucose Dulbecco's Modified Eagle's Medium (DMEM) supplemented with 10% FBS, 1 mM pyruvate, penicillin (100 Units/mL) and streptomycin (100 μg/mL). When cells were confluent, differentiation to brown adipocytes was induced for 48 h using 1.72 μM insulin (human recombinant), 1 nM thyroid hormone (T3), 0.5 mM 3-isobutyl-1-methylxanthine (IBMX), 125 nM indomethacin, and 1 μM dexamethasone. After induction, the medium was changed to post-differentiation medium (high glucose DMEM) supplemented with 10% FBS, 1 mM pyruvate, penicillin (100 Units/mL), streptomycin (100 μg/mL), 1.72 μM insulin, and 1 nM T3. The post-differentiation medium was replenished every second day. Brown adipocytes were used for experimental investigations 4–6 days after induction. Oil Red O staining was performed according to the manufacturer's instructions. Counterstaining was performed using haematoxylin.
Brown pre-adipocytes were seeded, grown to confluence and differentiated in six-well plates as described above. Thirty minutes prior to the experiment, maintenance medium (cf. 2.1) was discarded and replaced with respective serum- and additive-free medium to avoid plasma protein binding of the PET-tracer. Cell starving, as performed for [^18F]FDG uptake measurements, was not indicated for [^11C]SNAP-7941 binding experiments. […] Baseline was determined using DMSO or ethanol, respectively. Sample processing, data analysis and statistical testing were performed as described in [^18F]FDG Uptake Experiments: Effects of MCHR1 Ligands on Brown Adipocyte Activation.

murine brown adipocytes [3] = assay: [18F]FDG uptake in brown adipocytes (brown adipocyte activation); assay type: cell-based; details: 30 min pre-treatment, baseline (vehicle) = 100% uptake/well, mean ± SD
Experimental: as §1
Brown pre-adipocytes were seeded, grown to confluence and differentiated in 6-well plates as described in section General. Cell starving was performed for 1 h using unsupplemented, glucose-free DMEM. […] [^18F]FDG uptake was performed for 50 min at 37°C (humidified atmosphere, 5% CO2). Supernatant was taken off, cells were washed with ice-cold PBS and finally trypsinized. Radioactive cell fractions were gamma counted (2480 Wizard^2, PerkinElmer) and normalized to percentage uptake per well. [^18F]FDG uptake under baseline conditions refers to 100% uptake. Three independent experiments were performed in triplicates. Statistical analysis was performed using an unpaired, two-tailed t-test.

ADRB3 [4] = target: ADRB3; design: method as in PMID 14730417, PMID 8719421, PMID 7903415, PMID 2570461; details: literature values for standard compounds; ref [43], [45]–[47]; read-out: Ki ADRB3 reference; cited from earlier work
[5] = target: T1, human adrenergic beta-3 receptor (ADRB3) (Homo sapiens, UniProt P13945); assay: Competitive binding assay, CHO-K1-ADRB3 cell membranes, [3H]CGP-12177 radioligand; details: for Ki: CHO-K1-ADRB3 membranes, 5 nM [3H]CGP-12177, 90 min 27°C, read-out: Ki ADRB3 experimental; for ADRB3/ MCHR1 (ratio of Ki values): selectivity toward MCHR1, ADRB3 Ki measured, MCHR1 Ki from ref [28]
T1 construct: host or cells: CHO-K1
T1 sequence (P13945 whole entry): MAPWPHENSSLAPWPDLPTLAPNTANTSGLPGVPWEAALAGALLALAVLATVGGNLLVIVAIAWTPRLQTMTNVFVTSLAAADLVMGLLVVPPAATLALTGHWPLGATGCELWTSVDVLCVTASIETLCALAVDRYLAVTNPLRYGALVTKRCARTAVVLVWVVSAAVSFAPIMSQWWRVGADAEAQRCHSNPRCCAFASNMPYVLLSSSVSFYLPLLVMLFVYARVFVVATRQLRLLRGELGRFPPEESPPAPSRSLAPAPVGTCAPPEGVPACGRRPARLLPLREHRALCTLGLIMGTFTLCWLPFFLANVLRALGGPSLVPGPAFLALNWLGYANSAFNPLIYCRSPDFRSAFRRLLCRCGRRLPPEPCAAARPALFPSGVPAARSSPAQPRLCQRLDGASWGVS
Experimental: CHO-K1-ADRB3 cell membranes were prepared from 175 cm^2 cell culture flasks, when 80% confluence was reached. All procedures were performed at 4°C. Cells were scraped off using ice-cold lysis buffer (10 mM Tris-HCl pH 7.4, 1 mM EDTA) and protease inhibitor cocktail was added according to the manufacturer's instructions (Sigma-Aldrich, St. Louis, USA). The cell suspension was homogenized using cannulas (29 G) and centrifuged for 10 min at 1,000 × g. The obtained supernatant was centrifuged for 30 min at 100,000 × g. Subsequently, the pellet was suspended using 50 mM Tris-HCl pH 7.4 and aliquoted. Aliquots were shock-frozen in liquid nitrogen and stored at −80°C until usage. Protein concentration of the cell membrane suspension was determined using BCA Protein Assay Kit (Thermo Scientific, Waltham, USA).
All stated concentrations refer to the final assay volume of 500 μL buffer (25 mM HEPES pH 7.4, 1 mM EDTA, 0.5% BSA). Competitive binding assays were performed using 13.6 ng/μL ADRB3 expressing CHO-K1 cell membrane suspension (cf. 2.3) and 5 nM [^3H]CGP-12177 as the respective radioligand. […] Nonspecific binding was determined using 10 μM carazolol. Total binding was determined in the presence of 1% respective solvent. Incubation was performed for 90 min at 27°C. Filtration through GF/B filters (Whatman®, presoaked in 0.05% PEI) was performed using a cell harvester (Brandel®, Gaithersburg, MD, USA) and was followed by two washing steps using ice-cold wash buffer (10 mM HEPES, 500 mM NaCl, pH 7.4). Filter pieces containing receptor-bound radioactivity were shaken for 30 min in scintillation cocktail (Ultima Gold™, PerkinElmer, Waltham, USA) before liquid scintillation counting (Hidex 300 SL, Turku, Finland). IC50 fitted binding curves were generated using the GraphPad Software 5.0 (La Jolla, CA, USA) using nonlinear regression.

CHO-K1-ADRB3 cells = target: T2, CHO-K1-ADRB3 cells (Homo sapiens, UniProt P13945); assay: Real-time kinetic displacement of [125I]Iodocyanopindolol binding (LigandTracer); assay type: cell-based; details: 20 μM non-radioactive compound applied after 60 min association phase
T2 construct: host or cells: CHO-K1
T2 sequence (P13945 whole entry): as above
Experimental: 2.5 × 10^5 cells (CHO-K1, CHO-K1-ADRB3) per cell culture dish were seeded 2 days prior to the experiment and incubated in an inclined position to allow an adherent cell pole at one side of the cell dish. Cell dish preparation was performed as previously described ([32], [33]). Real-time kinetic radioligand binding measurements were performed using a dedicated device for low energy gamma radiation (LigandTracer® Gray Technology, Ridgeview, Sweden). The assay protocol compromised consecutive radioactivity measurements of the target region (cell pole) and of the opposite pole of the petri dish, where no cells were seeded (background signal). Radioactivity was counted in each region for 3 s with a delay of 2 s over the time course of the experiment. Raw counts per second (cps) of the target region were corrected for background signal and for radioactive decay. Displacement of [^125I]Iodocyanopindolol binding was conducted after 1 h association phase of radioligand binding by consecutively applying rising concentrations of SNAP-7941 and FE@SNAP. The same volume of ethanol was added as vehicle control. Experiments were performed on at least three different days.

MCHR1 = target: MCHR1; design: method as in PMID 28808288; details: previously described; ref [28]; cited from earlier work

SMILES	[11C]SNAP-7941 binding per well referring to baseline (murine brown adipocytes [2]) [%]	[18F]FDG uptake referring to baseline (murine brown adipocytes [3]; 2 μM compound)	Effect on [125I]Iodocyanopindolol binding to CHO-K1-ADRB3 cells (CHO-K1-ADRB3 cells)	Ki ([5]; n = 3 in triplicates) [nM]	ADRB3/ MCHR1 (ratio of Ki values) [5]	Ki (MCHR1) [nM]	[18F]FDG uptake referring to baseline (murine brown adipocytes [3]; 20 μM compound) [%]	also measured
CC(C)(C)NCC(O)COc1cccc2[nH]c(=O)[nH]c12 (stereo not drawn) [[^3H]CGP-12177, 5,7-[^3H](-)CGP-12177]								Kd (ADRB3 [1]): 109 nM
C[C@H](Cc1ccc2c(c1)OC(C(=O)[O-])(C(=O)[O-])O2)NC[C@H](O)c1cccc(Cl)c1.[Na+].[Na+] [CL 316,243, reference compound]	91.1 ± 3.6	137.7 ± 12.2%						
CC(C)NCC(O)COc1cccc2[nH]c3ccccc3c12 (centres unmarked) [carazolol, reference compound]								Ki (ADRB3 [4]): 2 nM; Ki ([5]; three independent experiments in triplicates): 2 ± 0.3 nM
CC(C)NC[C@H](O)COc1cccc2ccccc12.Cl [(S)-propranolol, (S)-propranolol hydrochloride]	95.8 ± 8.6	did not alter						[11C]SNAP-7941 binding per well referring to baseline (murine brown adipocytes [2]; listed as propranolol): did not alter
COCC1=C(C(=O)OC)[C@H](c2ccc(F)c(F)c2)N(C(=O)NCCCN2CCC(c3cccc(NC(C)=O)c3)CC2)C(=O)N1 [SNAP-7941]	77.1 ± 5.0		did not affect binding	14500 ± 300	~3,708	3.91 ± 0.74	63.24 ± 2.6	Reduction of [11C]SNAP-7941 binding (murine brown adipocytes [2]; versus baseline): 22.9 ± 5.0%
COCC1=C(C(=O)OCCF)C(c2ccc(F)c(F)c2)N(C(=O)NCCCN2CCC(c3cccc(NC(C)=O)c3)CC2)C(=O)N1 (centres unmarked) [FE@SNAP]			did not affect binding	65100 ± 2900	~6,523	9.98 ± 1.12	73.03 ± 13.6	

— publication PMC6581027, “In vitro Radiopharmaceutical Evidence for MCHR1 Binding Sites in Murine Brown Adipocytes” (Frontiers in Endocrinology, 2019)
